{
  "source": "patent US20050048563A1",
  "about": "“Membrane molecule indicator compositions and methods” (Novasite Pharmaceuticals, Inc, priority 2000, published 2005)",
  "key": {"PLC": {"system": "PLC", "assay_type": "cell-based, mouse"}, "[1]": {"system": "adrenal glomerulosa cells", "experiment": "Confocal PLCδ1PH-GFP translocation in adrenal glomerulosa cells", "assay_type": "cell-based, bovine", "settings": "angiotensin II stimulation, 2 mM Sr^2+ or Ca^2+"}},
  "data": [
    {"compound": "NCCc1c[nH]cn1", "note": "[histamine]", "values": [
      {"measurement": "duration of translocation response", "setting": "PLC", "result": "≥ 15", "unit": "min"},
      {"measurement": "translocation amplitude relative to BK response control / BK-induced peak values", "setting": "PLC", "result": 40, "unit": "%"}
    ]},
    {"compound": "CCCCCCCC/C=C\\CCCCCCCC(=O)OCC(O)COP(=O)(O)O", "note": "(centres unmarked) [LPA, 1-oleoyl LPA]", "values": [
      {"measurement": "translocation amplitude relative to BK response control / BK-induced peak values", "setting": "PLC", "result": 25, "unit": "%"}
    ]},
    {"compound": "neurokinin A [NKA]", "values": [
      {"measurement": "desensitization of PLC activation on repeated NKA pulses", "setting": "PLC", "result": "incremental partial homologous desensitization"},
      {"measurement": "translocation of the probe (PLC activation profile)", "setting": "PLC", "result": "fast and near-complete translocation"}
    ]},
    {"compound": "aluminum fluoride [A1F^4−]", "values": [
      {"measurement": "desensitization of PLC activation", "setting": "PLC", "result": "no desensitization"},
      {"measurement": "onset of PLC activation", "setting": "PLC", "result": "slow"}
    ]},
    {"compound": "angiotensin II (DRVYIHPF; Angiotensin-2; UniProt P01019 25-32, looked up)", "values": [
      {"measurement": "translocation of PLCδ1PH-GFP in presence of Sr^2+ versus Ca^2+", "setting": "[1]", "result": "not significantly different"}
    ]}
  ]
}
